Common to all, as to assay type: in vivo
One test relates to Septoria tritici. The test is described as follows: Test E: wheat leaf blotch, preventive spray on wheat seedlings. To be noted: Zymoseptoria tritici, 456 h, wheat seedlings sprayed to run-off, inoculated next day, rated after 48 h + 19 days, read-out: Percentage Disease Control Test E. Put shortly:
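Wheat seedlings were sprayed to run-off with compound at 200 ppm (≈800 g/ha) or 40 ppm in acetone/water with surfactant. Spores were inoculated the next day, followed by 48 h saturated atmosphere at 24° C, then 19 days at 20° C. Disease control was visually rated 0–100 relative to controls.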

In test [1] the test system is Puccinia recondita f. sp. tritici. The test can be described thus: Test C: wheat leaf rust, spray the day after inoculation of wheat seedlings.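 Also: Curative spray on infected wheat seedlings with visual rating 5 days later.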 The settings on record: Puccinia recondita, 120 h, wheat seedlings inoculated, sprayed the following day, rated after 5 days, read-out: Percentage Disease Control Test C. In a few lines: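 Wheat seedlings inoculated with P. recondita spores, held 24 h at 20 °C in saturated atmosphere, then sprayed to run-off next day (curative). Test suspension in acetone/water with 250 ppm surfactant, 200 ppm (≈800 g/ha) or 40 ppm. Disease rated visually after 5 days at 20 °C as % control relative to untreated.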

Another test has as its system Botrytis cinerea. The test is described as follows: Test F: tomato botrytis, preventive spray on tomato seedlings. The settings on record: Botrytis cinerea, topical, 120 h, tomato seedlings sprayed to run-off, inoculated next day, rated after 48 h + 3 days, read-out: Percentage Disease Control Test F. Put shortly: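 Tomato seedlings sprayed to run-off with compound suspended in acetone/water (50/50) with 250 ppm Trem® 014, at 200 ppm (800 g/ha) or 40 ppm where marked, then inoculated next day with B. cinerea spores. Held 48 h saturated at 20° C, then 3 days at 27° C; disease control rated visually, 0–100 versus untreated controls.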

The next test has as its system Septoria nodorum. The test can be described thus: Test D: wheat glume blotch, preventive spray on wheat seedlings. The settings on record: Parastagonospora nodorum, 216 h, wheat seedlings sprayed to run-off, inoculated next day, rated after 48 h + 7 days, read-out: Percentage Disease Control Test D. Put shortly: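 Compounds in acetone/water (50/50) with 250 ppm Trem 014 sprayed to run-off on wheat seedlings at 200 ppm (≈800 g/ha) or 40 ppm where marked. Spore inoculation next day, 48 h saturated atmosphere at 20 °C, then 7 days at 20 °C; visual rating as % disease control versus controls.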

Test [2] deals with Puccinia recondita f sp. tritici. The test can be described thus: Test B: wheat leaf rust, preventive spray on wheat seedlings. To be noted: Puccinia recondita, 192 h, wheat seedlings sprayed to run-off, inoculated next day, rated after 24 h + 7 days, read-out: Percentage Disease Control Test B.

Each structure is given as a SMILES string.

Turning to `COC(=O)NCc1cc(-c2ccn(-c3ccc4c(c3)C=C(C(=O)O)CO4)n2)ccc1Cl` [Compound 24, 6-[3-[4-chloro-3-[[(methoxycarbonyl)amino]methyl]phenyl]-1H-pyrazol-1-yl]-2H-1-benzopyran-3-carboxylic acid], the pest or weed control at 200 ppm with Septoria tritici amounted to 0%; in test [1], 0%; in the test on Botrytis cinerea, 0%; in the test with Septoria nodorum it was 89%; in test [2] it was 96%.

On to `COC(=O)NCc1cc(-n2ccc(-c3ccc4c(c3)CCCO4)n2)ccc1C` [Compound 25, methyl N-[[5-[3-(3,4-dihydro-2H-1-benzopyran-6-yl)-1H-pyrazol-1-yl]-2-methylphenyl]methyl]carbamate], for which the pest or weed control at 200 ppm in the test with Septoria tritici was determined as 100%; in test [1], 100%; in the test on Botrytis cinerea it was 0%; in the test on Septoria nodorum, 100%; in test [2] it was 100%.

Turning to `CNC(=O)NCc1cc(-c2ccn(-c3ccc4c(c3)CCCO4)n2)ccc1Cl` [Compound 4, N-[[2-chloro-5-[1-(3,4-dihydro-2H-1-benzopyran-6-yl)-1H-pyrazol-3-yl]-phenyl]methyl]-N′-methylurea], the pest or weed control at 200 ppm with Septoria tritici was 0%; in test [1], 53%; in the test with Botrytis cinerea it was 0%; in the test with Septoria nodorum, 82%; in test [2], 97%.

`CC(=O)NCc1cc(-c2ccn(-c3ccc4c(c3)CCCO4)n2)ccc1Cl` [Compound 2, N-[[2-chloro-5-[1-(3,4-dihydro-2H-1-benzopyran-6-yl)-1H-pyrazol-3-yl]-phenyl]methyl]acetamide]: in the test with Septoria tritici (40 ppm (value followed by *)), the pest or weed control at 40 ppm was found to be 97%. The pest or weed control at 200 ppm in test [1] turned out to be 88%; in the test on Botrytis cinerea, 0%; with Septoria nodorum, 100%; in test [2] it was 100%.

Consider `COC(=O)NCc1cc(-c2ccn(-c3ccc4c(c3)CC3(CO4)OCCO3)n2)ccc1Cl` [Compound 28, methyl N-[[2-chloro-5-(1-spiro[2H-1-benzopyran-3(4H), 2′-[1,3]dioxolan]-6-yl-1H-pyrazol-3-yl)phenyl]methyl]carbamate], for which the pest or weed control at 200 ppm came to 93% in the test on Septoria tritici; 100% in test [1]; 0% in the test with Botrytis cinerea; 99% in the test with Septoria nodorum; 100% in test [2].

Consider `COC(=O)NCc1cc(-c2ccn(-c3ccc4c(c3)C=C(C(=O)OC)CO4)n2)ccc1Cl` [Compound 23, methyl 6-[3-[4-chloro-3-[[(methoxycarbonyl)amino]methyl]phenyl]-1H-pyrazol-1-yl]-2H-1-benzopyran-3-carboxylate], for which the pest or weed control at 200 ppm amounted to 0% in the test with Septoria tritici; 0% in test [1]; 0% in the test with Botrytis cinerea; 73% in the test with Septoria nodorum; 94% in test [2].
